Source: patent US20230398130A1, “METHODS AND COMPOSITIONS FOR DIFFERENTIATING STEM CELLS” (Massachusetts Institute of Technology, priority 2020, published 2023)

Key:
ISC-enriched organoids [1] = experiment: Primary screen, 384-well 2.5-D organoid differentiation (ENR+CD, 6 days, Target Selective Inhibitor Library, vs whole-plate median): ATP (CellTiter-Glo 3D, CTG); settings: for Dose.FC.CTG / Z.CTG: primary screen; for Dose.FC.CTG: ENR+CD 6 days, FC vs plate median; for Z.CTG: standard z score of FC
ISC-enriched organoids [2] = experiment: Primary screen, 384-well 2.5-D organoid differentiation (ENR+CD, 6 days): carbachol-induced lysozyme secretion (LYZ.S); assay type: cell-based, murine; settings: for Dose.FC.LYZ.S: primary screen, ENR+CD 6 days, FC vs plate median
Excerpt: (§1) High-throughput screening.

ISC-enriched organoids [3] = experiment: Primary screen, 384-well 2.5-D organoid differentiation (ENR+CD, 6 days): basal lysozyme secretion (LYZ.NS); assay type: cell-based, murine; settings: for Dose.FC.LYZ.NS / Z.LYZ.NS: primary screen; for Dose.FC.LYZ.NS: ENR+CD 6 days, FC vs plate median; for Z.LYZ.NS: standard z score of FC
Excerpt: as §1

[4] = dose 0.08 uM (1st of 4 lines per treatment; dose not printed in this part)
[5] = dose 0.40 uM (2nd of 4 lines per treatment; dose not printed in this part)
[6] = dose 2.00 uM (3rd of 4 lines per treatment; dose not printed in this part)
[7] = dose 10.00 uM (4th of 4 lines per treatment; dose not printed in this part)

## COc1cc2c(cc1O)CC[C@@H]1[C@@H]2CC[C@]2(C)[C@@H](O)CC[C@@H]12 [2-Methoxyestradiol (2-MeOE2)]
ISC-enriched organoids [1]; [4]
  SSMD.CTG_Rep (strictly standardized mean difference): 0.407
ISC-enriched organoids [1]; [5]
  SSMD.CTG_Rep (strictly standardized mean difference): 0.930
ISC-enriched organoids [1]; [6]
  SSMD.CTG_Rep (strictly standardized mean difference): 0.461
ISC-enriched organoids [1]; [7]
  SSMD.CTG_Rep (strictly standardized mean difference): −0.878
ISC-enriched organoids [1]; dose 0.08 uM
  Dose.FC.CTG: 0.299 log 2 fold change
  Z.CTG: 0.714
ISC-enriched organoids [1]; dose 0.40 uM
  Dose.FC.CTG: 0.401 log 2 fold change
  Z.CTG: 0.957
ISC-enriched organoids [1]; dose 2.00 uM
  Dose.FC.CTG: 0.227 log 2 fold change
  Z.CTG: 0.543
ISC-enriched organoids [1]; dose 10.00 uM
  Dose.FC.CTG: −0.672 log 2 fold change
  Z.CTG: −1.606
ISC-enriched organoids [2]; [4]
  SSMD.LYZ.S_Rep (strictly standardized mean difference): 1.015
  Z.LYZ.S (standard z score): 1.224
ISC-enriched organoids [2]; [5]
  SSMD.LYZ.S_Rep (strictly standardized mean difference): 0.831
  Z.LYZ.S (standard z score): 1.747
ISC-enriched organoids [2]; [6]
  SSMD.LYZ.S_Rep (strictly standardized mean difference): 0.144
  Z.LYZ.S (standard z score): 0.190
ISC-enriched organoids [2]; [7]
  SSMD.LYZ.S_Rep (strictly standardized mean difference): −1.135
  Z.LYZ.S (standard z score): −1.795
ISC-enriched organoids [2]; dose 0.08 uM
  Dose.FC.LYZ.S: 0.189 log 2 fold change
ISC-enriched organoids [2]; dose 0.40 uM
  Dose.FC.LYZ.S: 0.270 log 2 fold change
ISC-enriched organoids [2]; dose 2.00 uM
  Dose.FC.LYZ.S: 0.029 log 2 fold change
ISC-enriched organoids [2]; dose 10.00 uM
  Dose.FC.LYZ.S: −0.278 log 2 fold change
ISC-enriched organoids [3]; [4]
  SSMD.LYZ.NS_Rep (strictly standardized mean difference): 0.077
ISC-enriched organoids [3]; [5]
  SSMD.LYZ.NS_Rep (strictly standardized mean difference): 0.227
ISC-enriched organoids [3]; [6]
  SSMD.LYZ.NS_Rep (strictly standardized mean difference): 0.049
ISC-enriched organoids [3]; [7]
  SSMD.LYZ.NS_Rep (strictly standardized mean difference): −0.826
ISC-enriched organoids [3]; dose 0.08 uM
  Dose.FC.LYZ.NS: 0.021 log 2 fold change
  Z.LYZ.NS: 0.186
ISC-enriched organoids [3]; dose 0.40 uM
  Dose.FC.LYZ.NS: 0.065 log 2 fold change
  Z.LYZ.NS: 0.566
ISC-enriched organoids [3]; dose 2.00 uM
  Dose.FC.LYZ.NS: 0.005 log 2 fold change
  Z.LYZ.NS: 0.041
ISC-enriched organoids [3]; dose 10.00 uM
  Dose.FC.LYZ.NS: −0.139 log 2 fold change
  Z.LYZ.NS: −1.209
